The record followed here is patent US20250186467A1, “METHODS OF TREATING MEDICAL CONDITIONS USING STAMPIDINE OR A RELATED COMPOUND” (ROME Therapeutics, Inc., priority 2022, published 2025).

In one data set the test system is IFN-β. The experiment in a line: Decitabine-stimulated human PBMC assay, IFN-β. It is filed as cell-based. To be noted: PBMCs with anti-CD3/anti-CD28 and 10 μM decitabine, 5 days. The protocol: EasySep buffer (32 mL, Stem Cell, cat. #20144) was used to dilute 8 mL of LRSC buffy coat (from fresh Leukopak) with gentle mixing. The diluted buffy coat (20 mL) was transferred into each of two SepMate 50 tubes, and the tubes were filled with 15 mL of Lyphoprep (Stem Cell, ct. #07851) density gradient. The SepMate tubes were then centrifuged at 1200G for 10 minutes at room temperature with the brake on. The top layer of supernatant was collected in SepMate tubes by quickly pouring it into a new 50 mL conical tube. The PBMCs were washed with EasySep buffer×2 by centrifuging at 300G for 5 minutes. The cells were resuspended in 30 mL of EasySep and centrifuged at 100G for 5 minutes with the brake off, and the platelets were removed. The cells were then resuspended in 6 mL of 1× RBC lysis buffer (InvitroGen) and incubated at 37° C. for 5 minutes. Then, 25 mL of EasySep buffer was mixed into the tube and it was centrifuged at 300G for 5 minutes. The cells were resuspended in 10 mL of EasySep buffer and the cells were then counted with Cellometer (AO/PI). The PBMCs were resuspended in RPMI1640 (ThermoFisher)+10% FBS (HyClone)+p/s at 3×10^6/mL. The PBMCs (100 μL, 300 k PBMCs) were then seeded in a 96-well flat bottom microplate (Corning) that had been precoated with 100 μL of anti-CD3 antibody (10 μg/mL in PBS, Biolegend) or PBS at 4° C., one day before the assay was commenced. […]

For another data set, the system named is PBMCs. The experiment in a line: Decitabine-stimulated human PBMC assay, cell viability. It counts as cell-based. The settings on record: PBMCs with 10 μM decitabine, 5 days. The protocol:
After 5 days, the plate was spun down at 100×G for 5 minutes. Supernatants (100 μL) was collected for interferon β (IFN-β) analysis using the MSD assay noted above, and any residual supernatant was stored at −80° C.

As to `COC(=O)[C@H](C)N[P@](=O)(OC[C@@H]1C=C[C@H](n2cc(C)c(=O)[nH]c2=O)O1)Oc1ccc(Br)cc1` [Stampidine, methyl ((S)-(4-bromophenoxy)(((2S,5R)-5-(5-methyl-2,4-dioxo-3,4-dihydropyrimidin-1(2H)-yl)-2,5-dihydrofuran-2-yl)methoxy)phosphoryl)-L-alaninate], the “inhibition of IFN-β” value in the data set on IFN-β is “showed inhibition of IFN-β”. For the same compound, the cellular toxicity result in the data set on PBMCs is given as “without any cellular toxicity”.
